Data set [1] is described as follows: Dielectric anisotropy Δ∈ of the compounds, dissolved in a liquid-crystalline host, capacitance at 1 kHz, extrapolated to 100%. Type of data set: physicochemical. Particulars: extrapolated from 5% solution in ZLI-2857, 20° C. The source says: In the present application, the term dielectrically positive compounds denotes compounds having a Δ∈ of >1.5, the term dielectrically neutral compounds denotes those in which −1.5≦Δ∈≦1.5, and the term dielectrically negative compounds denotes those having a Δ∈ of <−1.5. The […] of this mixture at 1 kHz in at least one test cell with a layer thickness of about 20 μm having a homeotropic surface alignment and at least one test cell with a layer thickness of about 20 μm having a homogeneous surface alignment. The measurement voltage is typically 0.5 V to 1.0 V, but is always less than the capacitive threshold of the respective liquid-crystal mixture. […]
(§1) All concentrations in this application, unless explicitly stated otherwise, are indicated in percent by weight and relate to the corresponding mixture as a whole. All physical properties are and have been determined in accordance with “Merck Liquid Crystals, Physical Properties of Liquid Crystals”, status November 1997, Merck KGaA, Germany, and apply to a temperature of 20° C., unless explicitly stated otherwise. An is determined at 589 nm and Δ∈ at 1 kHz.
The following examples are intended to explain the invention without limiting it. […] V10, V50 and V90 (the threshold voltage, mid-grey voltage and saturation voltage respectively) and V0 (the capacitive threshold voltage) were each determined at 20° C.

A short description of data set [2]: Optical anisotropy Δn (589 nm, 20° C.), host mixture ZLI-4792. Type of data set: physicochemical. Particulars: 5% in ZLI-4792. As for the experimental part: The host mixture used for determining the applicationally relevant physical parameters is ZLI-4792 from Merck KGaA, Germany. As an exception, the determination of the dielectric anisotropy of dielectrically negative compounds is carried out using ZLI-2857, likewise from Merck KGaA, Germany. The values for the respective compound to be investigated are obtained from the change in the properties, for example the dielectric constants, of the host mixture after addition of the compound to be investigated and extrapolation to 100% of the compound employed. […]
as §1
The following examples are intended to explain the invention without limiting it. Above and below, percentages are percent by weight. […] V10, V50 and V90 (the threshold voltage, mid-grey voltage and saturation voltage respectively) and V0 (the capacitive threshold voltage) were each determined at 20° C.

One may read the melting point as the temperature, or range, at which the solid turns liquid. In turn, `CCCC1CCc2c(c(=O)oc3cc(OCC)ccc23)C1` (stereo not drawn) [Example 1.1, 3-ethoxy-8-propyl-7,8,9,10-tetrahydrobenzo[c]chromen-6-one] registered a melting point of 108 °C. Moreover, in data set [1], the “Δ∈” value was −7.5. Besides, in data set [2], the Δn was found to be 0.1302.

Source of the values: patent US7824745B2, “Benzochromene derivatives” (Merck Patent GmbH, priority 2005, dated 2010).
